Test [1] concerns the target T1, YvcK (Bacillus subtilis, UniProt O06974).
T1 construct: gene mgfK; His6-tagged YvcK
Put plainly: thermal shift assay (SYPRO Orange) with apparent KD; limited trypsin proteolysis. The class given is binding.

Test [2] concerns the target T1, YvcK. In words: thermal shift assay (SYPRO Orange) with apparent KD. The format is binding.

T1 sequence (O06974 whole entry): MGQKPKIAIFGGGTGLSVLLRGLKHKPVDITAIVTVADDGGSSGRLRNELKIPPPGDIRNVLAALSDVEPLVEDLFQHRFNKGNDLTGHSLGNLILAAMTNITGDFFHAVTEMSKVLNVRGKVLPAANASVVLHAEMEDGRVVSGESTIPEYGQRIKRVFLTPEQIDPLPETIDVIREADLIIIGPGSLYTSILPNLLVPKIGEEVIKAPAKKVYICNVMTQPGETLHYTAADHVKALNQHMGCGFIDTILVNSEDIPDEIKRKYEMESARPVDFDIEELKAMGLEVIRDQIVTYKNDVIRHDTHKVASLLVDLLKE

In the case of `CC(=O)N[C@H]1[C@@H](OP(=O)(O)OP(=O)(O)OC[C@H]2O[C@@H](n3ccc(=O)[nH]c3=O)[C@H](O)[C@@H]2O)O[C@H](CO)[C@@H](O)[C@@H]1O` [UDP-GlcNAc], the Kd on YvcK [1] came out at 0.41 ± 0.24 mM.

For `O=c1ccn([C@@H]2O[C@H](COP(=O)(O)OP(=O)(O)O)[C@@H](O)[C@H]2O)c(=O)[nH]1` [UDP], the Kd on YvcK [2] amounted to 6.21 ± 0.62 mM.

The values above are taken from paper PMC5482804, “YvcK, a protein required for cell wall integrity and optimal carbon source utilization, binds uridine diphosphate-sugars” (Scientific Reports, 2017).
